Read-outs that look alike come from different tables or passages of the source.
Tests used:
[1] = Quantum yield and extinction coefficient measurements (reference fluorescein in 0.1 N NaOH); assay type: physicochemical
Description: Quantum yield, Φ, may be obtained by comparison of the integrated area of the corrected emission spectrum of the sample with that of a reference solution. A preferred reference solution is a solution of fluorescein in 0.1 N NaOH, quantum efficiency 0.95. The concentration of the reference is adjusted to match the absorbance, Abs, of the test sample. The quantum yields may be calculated using the following equation: […]
Optical Absorption Spectroscopy. UV-visible spectra were obtained by using either a Cary IE scanning spectrophotometer or a Hewlet Packard diode array spectrophotometer. Both instruments were controlled by Pentium PCs and were run using the manufacturer supplied software packages. A circulating water bath was used during acquisition to maintain the temperature at 25.0° C.±1.0° C. Samples were contained in 1-cm path length quartz cuvettes (3.5 mL volume). All manipulations were performed at least three times.
Quantum Yield Measurements. The quantum yield of MS1 was determined by comparison to fluorescein in 0.1 N NaOH (φ=0.95) as a reference. In a typical experiment, a 6 mL solution of ˜1 μM MS1 was prepared. For metal-free studies, 10 μL of 100 mM K4EDTA was added to chelate any adventitious metal ions. To determine the quantum efficiencies of the metal-bound dye, 10 μL of a 10 mM HgCl2 solution was added to a 1 μM MS1 solution. The concentration of the reference solution was adjusted such that Amax (490 nm) equaled Amax of MS1 (505 nm) or Amax of the Hg^2+ complex (501 nm), and the excitation wavelength was chosen as the wavelength determined from where the reference and probe excitation spectra intersect. Excitation was at 497 nm for MS1 and at 496 nm for the Hg^2+ complex. Emission spectra were integrated from 510-650 nm and the quantum yields were calculated standard methods.

[2] = Determination of protonation constants (fluorescence dependence on pH); assay type: physicochemical; conditions: 10 mM KOH, 1 μM probe; for pKa, formation of a non-fluorescent isomer / pKa, protonation of the tertiary amine: 100 mM KCl, pH ~12 to ~3; for pKa: aqueous solution of 100 mM KCl
Description: Determination of Protonation Constants. The pKa values for MS1 affect fluorescence were determined by plotting the integrated emission intensity versus pH from ˜12 to ˜4. In a typical experiment, a 30 mL solution of 1 μM MS1 in 100 mM KCl, 10 mM KOH was prepared (pH ˜12). Aliquots of 6 N, 2 N, 1 N, 0.5 N, and 0.5 N HCl were added to achieve pH changes of approximately […], and the emission spectrum was recorded after each addition. […] Upon excitation at 500 nm, the emission spectra were integrated over the range 510 nm to 650 nm, normalized and plotted against pH. The data were fit to the non-linear expression previously described.

[3] = Selectivity of mercury-induced fluorescence in the presence of other metal ions; assay type: binding; conditions: for fluorescence increase upon addition of Hg^2+: 1 μM probe, excitation 500 nm
Description: Selectivity of Mercury-Induced Fluorescence in the Presence of Other Metal Ions. The selectivity of MS1 for Hg^2+ against a background of various alkali, alkaline earth, transition metal ions, and Zn(II), Cd(II) or Pb(II) was investigated by using fluorescence spectroscopy. Aqueous metal ion solutions of Li(I), Na(I), Rb(I), Mg(II), Ca(II), Sr(II), Ba(II), Mn(II), Co(II), Ni(II), Cd(II), and Hg^2+ were prepared from the chloride salts. The Cu(II) solution was prepared from copper sulfate and the Pb(II) was prepared from lead nitrate. A solution of Cr(III) was prepared from chromium acetate and stored at pH 1. Solutions of Fe(II) were prepared immediately before use with ferrous ammonium sulfate and water that was thoroughly purged with Ar. All stock solutions were ˜10 mM, with the exception of 100 mM NaCl. In a typical experiment, the emission spectrum of the free dye was recorded. A 20 μL aliquot of a ˜10 mM metal solution was then added to a 1 μM solution of MS1 (3 mL, for a concentration of metal ion at about 1 to about 50 ppm, depending on the molecular weight of the metal ion tested) and the emission spectrum was recorded with excitation at 500 nm. Subsequently, a 20 μL portion of 10 mM HgCl2 was added and the emission spectrum was obtained. The spectra were integrated from 510-650 nm and normalized with respect to the free dye.

[4] = Fluorescence response of sensor to Hg^2+ (fluorescence spectroscopy, integrated emission); assay type: binding
Description: General Spectroscopic Procedures. Ultrol grade PIPES (piperazine-N,N′-bis(2-ethanesulfonic acid) from Calbiochem, KCl (99.997%) and anhydrous HgCl2 (99.998%) were purchased and used as received. Millipore filtered water was used to prepare all aqueous solutions. With the exception of the pKa determination, all spectroscopic measurements were conducted at neutral pH with 50 mM PIPES, 100 mM KCl buffer adjusted to pH 7. An Orion glass electrode, calibrated prior to use, was employed to record solution pH. Mercury solutions were prepared from 10 mM stock solutions of HgCl2. Stock solutions of MS1 (1 mM in DMSO) was prepared, stored at −4° C., and thawed in the dark immediately prior to use. After addition of this stock solution to aqueous buffers, the resulting solution contained 0.1% DMSO for fluorescence and 1% DMSO for absorption measurements. The KaleidaGraph software package was used to manipulate all spectral data.
Fluorescence Spectroscopy. Emission spectra were obtained with a Hitachi F-3010 spectrofluorimeter linked to a Pentium PC running the SpectraCalc software package. A rhodamine quantum counter was used to normalize the spectra for excitation intensity, and manufacturer-supplied correction curves were used to normalize the emission spectra. Manufacturer supplied photomultiplier curves were used to correct for emission intensity. A circulating water bath was used during all experiments to regulate the temperature at 25.0° C.±0.1° C. Spectra were obtained with 3 nm slit widths and either a 240 nm/min or 600 nm/min scan speed. All measurements were conducted at least in triplicate.

[5] = Water solubility of the probe; assay type: physicochemical
[6] = Reversibility of Hg^2+ binding upon addition of TPEN
[7] = pH 7, metal-free, at absorption maximum (497 nm sensor 1; 505 nm MS1)
[8] = pH 7, with Hg^2+, at absorption maximum (500 nm sensor 1; 501 nm MS1)

## O=C(O)c1ccccc1-c1c2cc(Cl)c(=O)cc-2oc2c(CN(CCS)Cc3ccccn3)c(O)ccc12 [sensor 1]
[1]; pH 7, metal-free
  quantum yield, free sensor: 0.27
[1]; [7]
  extinction coefficient (epsilon), free sensor: 61,600 M^−1 cm^−1
[1]; pH 7, with Hg^2+
  quantum yield, Hg^2+-bound: 0.27
[1]; [8]
  extinction coefficient (epsilon), Hg^2+-bound: 69,000 M^−1 cm^−1
[1]; pH 11, metal-free
  quantum yield, free sensor: 0.07
[1]; pH 11, metal-free, 504 nm
  extinction coefficient (epsilon), free sensor: 60,800 M^−1 cm^−1
[1]; pH 11, with Hg^2+
  quantum yield, Hg^2+-bound: 0.24
[1]; pH 11, with Hg^2+, 507 nm
  extinction coefficient (epsilon), Hg^2+-bound: 78,300 M^−1 cm^−1
[2]
  pKa, formation of a non-fluorescent isomer: 4.6
  pKa, protonation of the tertiary amine: 8.2
[3]; pH 7
  selectivity of fluorescence increase for Hg^2+ over other cations: selective for Hg^2+
[3]; pH 7 (50 mM PIPES, 100 mM KCl)
  fluorescence increase upon addition of Hg^2+: 1.5 fold
[3]; pH 7 (50 mM PIPES, 100 mM KCl), listed as Sensor 1
  fluorescence increase upon addition of Hg^2+: ~2.5 fold
[3]; pH 11
  selectivity of fluorescence increase for Hg^2+ over other cations: selective for Hg^2+
[3]; pH 11 (50 mM CABS, 100 mM KCl)
  fluorescence increase upon addition of Hg^2+: 5 fold
[4]; pH 11 (50 mM CABS, 100 mM KCl), 0-3 equivalents Hg^2+, excitation 504 nm
  increase in integrated emission upon addition of Hg^2+: ~6 fold

## CC(C)(S)CN(Cc1ccccn1)Cc1c(O)ccc2c(-c3ccccc3C(=O)O)c3cc(Cl)c(=O)cc-3oc12 [sensor 2]
[2]
  pKa, formation of a non-fluorescent isomer: 4.7
  pKa, protonation of the tertiary amine: 8.0
[3]; pH 7
  selectivity of fluorescence increase for Hg^2+ over other cations: selective for Hg^2+
[3]; pH 7 (50 mM PIPES, 100 mM KCl)
  fluorescence increase upon addition of Hg^2+: 1.5 fold
[3]; pH 11
  selectivity of fluorescence increase for Hg^2+ over other cations: selective for Hg^2+
[3]; pH 11 (50 mM CABS, 100 mM KCl)
  fluorescence increase upon addition of Hg^2+: 6 fold

## CCSCCN(CCSCC)Cc1ccccc1NCc1c(O)ccc2c(-c3ccccc3C(=O)O)c3cc(Cl)c(=O)cc-3oc12 [sensor 3, 2-{5-[(2-{[Bis-(2-ethylsulfanyl-ethyl)-amino]-methyl}-phenylamino)-methyl]-2-chloro-6-hydroxy-3-oxo-3H-xanthen-9-yl}-benzoic acid]
[5]
  water solubility: water-soluble
[1]; pH 7
  absorption maximum, free sensor: 505 nm
  increase in brightness upon Hg^2+ binding: ~3.3 fold
  increase in quantum yield upon Hg^2+ coordination: ~2.75 fold
[1]; pH 7, 50 mM PIPES, 100 mM KCl, EDTA present
  emission maximum, free sensor: 524 nm
[1]; pH 7, metal-free
  quantum yield, free sensor: 0.04
[1]; [7]
  extinction coefficient (epsilon), free sensor: 61,400 M^−1 cm^−1
[1]; pH 7, metal-free, at absorption maximum (497 nm sensor 1; 505 nm MS1), listed as MS1
  extinction coefficient (epsilon), free sensor: 61,300 M^−1 cm^−1
[1]; pH 7, with Hg^2+
  absorption maximum, Hg^2+-bound: 501 nm
  emission maximum, Hg^2+-bound: 528 nm
  quantum yield, Hg^2+-bound: 0.11
[1]; [8]
  extinction coefficient (epsilon), Hg^2+-bound: 73,200 M^−1 cm^−1
[2]; pH ~12 to ~3, read-out: pKa, formation of a non-fluorescent isomer
  pKa: 4.8
[2]; pH ~12 to ~3, read-out: pKa, protonation of the aniline nitrogen atom
  pKa: 7.1
[3]; Li(I), Na(I), Rb(I), Mg(II), Ca(II), Sr(II), Ba(II)
  Hg response in a background of alkali and alkaline earth metals: unaffected
[3]; Zn(II), Cd(II), Cr(III), Pb(II) background
  effect of Zn(II), Cd(II), Cr(III), Pb(II) on fluorescence response to Hg^2+: do not inhibit
[3]; first-row transition metal ions
  interference of first-row transition metal ions with Hg^2+-induced fluorescence increase: only Cu(II) interferes
[3]; pH 7
  selectivity of fluorescence increase for Hg^2+ over other cations: selective for Hg^2+
[4]; 500 nM probe, pH 7, read-out: EC50 (concentration of Hg^2+ required to achieve 50% of maximum fluorescence)
  EC50: 410 nM
[4]; pH 7 (50 mM PIPES, 100 mM KCl)
  increase in integrated emission upon addition of Hg^2+: ~7 fold
[4]; pH 7 (50 mM PIPES, 100 mM KCl), listed as MS1
  increase in integrated emission upon addition of Hg^2+: ~5 fold
[6]
  reversibility of Hg^2+ binding: reversibly
[6]; 1 μM sensor, 1 equiv Hg^2+ and 1 equiv TPEN alternately, excitation 500 nm
  normalized integrated emission versus cycle number, Hg^2+/TPEN cycles: restoration and decrease of fluorescence upon addition of 1 equiv Hg^2+ and 1 equiv TPEN, respectively, over the course of five cycles
[6]; 1 equivalent TPEN added to stoichiometric mixture of sensor and Hg^2+
  fluorescence after TPEN addition, distance from the background value: ≤ 20%

## O=C(O)c1ccccc1-c1c2cc(Cl)c(=O)cc-2oc2c(CNc3ccccc3CN(CCS)Cc3ccccn3)c(O)ccc12 [sensor 4]
[4]; crude reaction mixture from the synthesis, in the presence of chloride ion
  fluorescence response upon addition of Hg^2+: positive fluorescence response

## CCSCCSCCN(CCSCCSCC)Cc1ccccc1NCc1c(O)ccc2c(-c3ccccc3C(=O)O)c3cc(Cl)c(=O)cc-3oc12 [sensor 6]
[4]
  fluorescence change upon Hg^2+ coordination: fluorescence decrease

## CCSCCN(CCSCC)Cc1c2oc3c(CN(CCSCC)CCSCC)c(O)c(Cl)cc3c(-c3ccccc3C(=O)O)c-2cc(Cl)c1=O [sensor 7]
[4]
  fluorescence change upon Hg^2+ coordination: fluorescence decrease

Reference: patent US7615377B2, “Fluorescein-based metal sensors” (Massachusetts Institute of Technology, priority 2003, dated 2009)
